The text below walks through data of patent US9913831B2, “Methods and compositions for treating nephrogenic diabetes insipidus” (UNIVERSITY OF UTAH RESEARCH FOUNDATION, priority 2011, dated 2018).

The test system of assay [1] is AQP2 water channel protein. The settings on record: normal rats, clopidogrel 20 mg/kg bw/day in drinking water 13 days, vs control. As for the experimental part: (§1) Tissue samples were prepared and immnoblotted for semi-quantitative determination of protein abundances of P2Y12 receptor, and β-actin by the methods described previously (Zhang et al, ibid, 2008, 2009, 2010). Whole tissue homogenates were prepared in the presence of protease inhibitors, and the concentrations of proteins in the homogenates were determined, and solubilized in Laemmli buffer. Then the solubilized proteins were size fractionated on 12% SDS-polyacrylamide gels. Quality of tissue sample preparation and equality of protein loading were verified by staining parallel-run loading gels with Coomassie-blue (Gelcode Blue, Pierce Endogen, Rockford, Ill.). The size fractionated proteins were electrotransferred to nitrocellulose membranes, and blocked with buffer containing non-fat milk. Differences in protein loading were corrected by normalizing the band densities of the target proteins to that of β-actin (polyclonal antibody from Biolegend, San Diego, Calif., USA). After washing, the blocked membranes were incubated with rabbit polyclonal antibodies to either P2Y12 receptor (AnaSpec, Fremont, Calif.) or aquaporin-2 (AQP2; Zhang et al, ibid, 2008) or AQP1 (commercial source) or β-actin (Biolegend, San Diego, Calif.). Non-specific binding was prevented by incubation of the membranes with goat serum. Generation and characterization of AQP2 antibody (GN-762) was described previously (Kishore et al, 2000; Zhang et al, 2008). When peptide block was tested, prior to its use on the membranes the P2Y12 receptor antibody was pre-adsorbed by incubation with the blocking peptide as per the instructions of the supplier (AnaSpec, Fremont, Calif.). After washing off the primary antibodies, the nitrocellulose membranes were incubated with a peroxidase-conjugated secondary antibody to rabbit IgG (Dako North America, Carpinteria, Calif.). Chemiluminescence reaction was used to detect sites of antigen-antibody reactions (SuperSignal Substrate; Pierce Endogen, Rockford, Ill.), and captured on an X-ray film. Images were digitized and band densities were quantified by using Un-San-It software (Silk Scientific, Orem, Utah). The band densities of AQP2 were normalized by the band densities of β-actin. Mean values of relative band densities thus obtained for P2Y12 receptor were expressed as percent of the mean values obtained in the control group of animals.
(§2) Clopidogrel bisulfate was given orally to a group of Sprague-Dawley rats (n=4) for 13 days by dissolving powdered Plavix® tablets (75 mg base; Bristol-Myers Squibb/Sanofi, Bridgeport, N.J.) in drinking water, so that the rats consumed at least 20 mg of clopidogrel bisulfate base per kg body weight per day. The concentration of the drug in the drinking water was adjusted daily based on the water consumption of the rats the previous day. Another group of rats (n=4) was given plain water and this group served as controls.

Assay [2] relates to P2Y12 receptor. Particulars: normal rats, clopidogrel 20 mg/kg bw/day 13 days. The method, then: as §1, §2
In assay [3] the test system is AQP1 water channel. Particulars: normal rats, clopidogrel 20 mg/kg bw/day 13 days. The method, then:
as §1, §2

Assay [4] deals with lithium-induced polyuria in mice (B6D2 genetic background). Particulars: lithium diet + clopidogrel 80 mg/kg bw/day 14 days vs LI alone, P<0.05 or better. As for the experimental part: Animal experiments: Male Sprague-Dawley rats were purchased from Charles River (Wilmington, Mass., USA), and Brattleboro mutant rats that lack AVP (HsdBlu:BRAT-Avpdi) were obtained from the Rat Resource & Research Center (RRRC), University of Missouri, Columbia, Mo., USA. Mice (B6D2 genetic background) were bred in-house. […] Lithium-added chow (40 mmol Li/kg chow) was custom prepared (MP Biomedicals, Aurora, Ohio, USA). Clopidogrel bisulfate was administered orally by powdering and dissolving Plavix® tablets (Bristol-Myers Squibb, New York, N.Y., USA) in drinking water. The concentration of the drug in the drinking water was adjusted daily based on the water consumption of the animals the previous day. The clopidogrel dose used in Sprague-Dawley rats (20 mg/kg bw/day) was the same as used by other investigators (de La Crux et al, 2003; Graciano et al, 2008). In mice, clopidogrel was administered at a dose of 80 mg/kg bw/day. When compared with the human clinical dose of Plavix®, and adjusted to the Km factor (ratio of body surface area to body weight) of the species (man vs. rat or mouse) (Reagan-Shaw et al, 2007), the doses used in rats or mice were 2.5- and 5-fold higher, respectively. […]
The effect of administration of clopidogrel on lithium-induced polyuria was determined in mice (B6D2 genetic background). […]

For `COC(=O)[C@H](c1ccccc1Cl)N1CCc2sccc2C1` [clopidogrel], in assay [1] (P<0.002), the “increase of AQP2 protein abundance in the inner medulla” value is on record as 1.9 fold. Moreover, in assay [1] (P<0.02), the “increase of AQP2 protein abundance in the cortex” value is 2.7 fold. In addition, in assay [1] (P=0.24), the “increase of AQP2 protein abundance in the outer medulla” value is reported as “not in the outer medulla”. For the same compound, in assay [2], the “protein abundance of P2Y12 receptor in the kidney” value is recorded as “did not appear to alter”. Also, the “protein abundance of AQP1 water channel in the kidney” value in assay [3] is reported as “did not appear to alter”. In assay [4], the water intake result is “significant decrease”.
